Results taken from patent publication US20050004163A1, “3-(diarylmethylene)-8-azabicyclo[3.2.1]octane derivatives” (priority 2000, published 2005).
Where two headings read alike, the source gives them in different places.

Target: T1, μ-opioid receptor (Rattus norvegicus, UniProt P33535)
T1 construct: the forebrains are homogenized in Tris buffer in a Teflon®-glass homogenizer; from tissue; host or cells: forebrain of male Wistar rats (particulate membrane preparation)
Test: Rat brain μ-opioid receptor binding assay ([3H]DAMGO)
Protocol: Rat Brain μ-Opioid Receptor Binding Assay
Male, Wistar rats (150-250 g, VAF, Charles River, Kingston, N.Y.) are killed by cervical dislocation and their brains removed and placed immediately in ice cold Tris HCl buffer (50 mM, pH 7.4). The forebrains are separated from the remainder of the brain by a coronal transection, beginning dorsally at the colliculi and passing ventrally through the midbrain-pontine junction. After dissection, the forebrains are homogenized in Tris buffer in a Teflon®-glass homogenizer. The homogenate is diluted to a concentration of 1 g of forebrain tissue per 100 mL Tris buffer and centrifuged at 39,000×G for 10 min. The pellet is resuspended in the same volume of Tris buffer with several brief pulses from a Polytron homogenizer. This particulate preparation is used for the μ-opioid binding assays. […] The tubes and filters are rinsed three times with 4 mL of 10 mM HEPES (pH 7.4) and the radioactivity associated with the filter circles determined using Formula 989 scintillation fluid (New England Nuclear, Boston, Mass.) in a scintillation counter.
The data are used to calculate either the % inhibition compared to control binding (when only a single concentration of test compound is evaluated) or a Ki value (when a range of concentrations is tested).
% Inhibition is calculated as follows: [formula]
Ki value is calculated using the LIGAND (Munson, P. J. and Rodbard, D., Anal. Biochem. 107: 220-239, 1980) data analysis program.

[1] = 10 nM solutions of the compounds, read-out: MOR binding Ki

T1 sequence (P33535 whole entry): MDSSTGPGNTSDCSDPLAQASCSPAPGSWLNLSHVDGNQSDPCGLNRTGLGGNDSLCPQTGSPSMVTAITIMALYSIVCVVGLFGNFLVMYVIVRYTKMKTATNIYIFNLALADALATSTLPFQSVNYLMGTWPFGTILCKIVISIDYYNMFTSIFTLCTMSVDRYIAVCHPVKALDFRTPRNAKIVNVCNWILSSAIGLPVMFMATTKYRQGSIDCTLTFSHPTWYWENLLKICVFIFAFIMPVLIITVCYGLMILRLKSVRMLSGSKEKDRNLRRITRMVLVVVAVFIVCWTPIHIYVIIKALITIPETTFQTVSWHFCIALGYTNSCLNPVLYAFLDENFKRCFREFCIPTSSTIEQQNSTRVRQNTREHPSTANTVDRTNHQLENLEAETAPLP

Compound | Ki (MOR binding Ki) | Ki [1]
CCNC(=O)c1ccc(C(=C2CC3CCC(C2)N3CC=C(C)C)c2ccc([N+](=O)[O-])cc2)cc1 [Cpd 136] | 3.03 nM | 
CCNC(=O)c1ccc(C(=C2CC3CCC(C2)N3CC=C(C)C)c2ccc(CCC(=O)O)cc2)cc1 [Cpd 137] | 9.74 nM | 
CCNC(=O)c1ccc(C(=C2CC3CCC(C2)N3Cc2ccoc2)c2ccc(S(N)(=O)=O)cc2)cc1 [Cpd 138] | 49.5 nM | 
CCNC(=O)c1ccc(C(=C2CC3CCC(C2)N3Cc2ccsc2)c2ccc(S(N)(=O)=O)cc2)cc1 [Cpd 139] | 1.54 nM | 
CCNC(=O)c1ccc(C(=C2CC3CCC(C2)N3Cc2nccs2)c2ccc(S(N)(=O)=O)cc2)cc1 [Cpd 140] | 217 nM | 
CCNC(=O)c1ccc(C(=C2CC3CCC(C2)N3Cc2cccs2)c2ccc(S(N)(=O)=O)cc2)cc1 [Cpd 141] | 1.05 nM | 
CCNC(=O)c1ccc(C(=C2CC3CCC(C2)N3CC=C(C)C)c2ccc(S(N)(=O)=O)cc2)cc1 [Cpd 142] | 4.01 nM | 
CCNC(=O)c1ccc(C(C#N)=C2CC3CCC(C2)N3Cc2ccoc2)cc1 [Cpd 143] | 1.03 nM | 
CCNC(=O)c1ccc(C(=C2CC3CCC(C2)N3Cc2ccoc2)c2nnn[nH]2)cc1 [Cpd 144] | 212 nM | 
CCNC(=O)c1ccc(C(C#N)=C2CC3CCC(C2)N3)cc1 [Cpd 145] | 945 nM | 
CCNC(=O)c1ccc(C(=C2CC3CCC(C2)N3Cc2ccco2)c2nnn[nH]2)cc1 [Cpd 146] | 15.2 nM | 
CCNC(=O)c1ccc(C(=C2CC3CCC(C2)N3CC=C(C)C)c2nnn[nH]2)cc1 [Cpd 147] |  | 109 nM
CCNC(=O)c1ccc(C(=C2CC3CCC(C2)N3Cc2ccsc2)c2nnn[nH]2)cc1 [Cpd 148] | 329 nM | 
CCNC(=O)c1ccc(C(=C2CC3CCC(C2)N3CCc2ccccc2)c2nnn[nH]2)cc1 [Cpd 149] | 63.7 nM | 
CCNC(=O)c1ccc(C(=C2CC3CCC(C2)N3Cc2nccs2)c2nnn[nH]2)cc1 [Cpd 150] | 73.8 nM | 
CCNC(=O)c1ccc(C(=C2CC3CCC(C2)N3)c2nnn[nH]2)cc1 [Cpd 151] | 1.76 nM | 
CCNC(=O)c1ccc(C(=C2CC3CCC(C2)N3Cc2ccoc2)c2cc(C(=O)O)cc([N+](=O)[O-])c2)cc1 [Cpd 152] | 12.2 nM | 
CCNC(=O)c1ccc(C(=C2CC3CCC(C2)N3Cc2ccoc2)c2cccc(CN)c2)cc1 [Cpd 153] | 71.1 nM | 
CCNC(=O)c1ccc(C(=C2CC3CCC(C2)N3Cc2ccccn2)c2cc(C(=O)O)cc([N+](=O)[O-])c2)cc1 [Cpd 154] | 91.3 nM | 
CCNC(=O)c1ccc(C(=C2CC3CCC(C2)N3CC=C(C)C)c2cc(C(=O)O)cc([N+](=O)[O-])c2)cc1 [Cpd 155] | 74.3 nM | 
CCNC(=O)c1ccc(C(=C2CC3CCC(C2)N3CC=C(C)C)c2cccc(CN)c2)cc1 [Cpd 156] | 5450 nM | 

Compound | Ki (MOR binding Ki) | Ki [1]
CCNC(=O)c1ccc(C(=C2CC3CCC(C2)N3CCc2ccccc2)c2cc(C(=O)O)cc([N+](=O)[O-])c2)cc1 [Cpd 157] | 8.57 nM | 
CCNC(=O)c1ccc(C(=C2CC3CCC(C2)N3CCc2ccccc2)c2cccc(CN)c2)cc1 [Cpd 158] | 12 nM | 
CCNC(=O)c1ccc(C(=C2CC3CCC(C2)N3Cc2nccs2)c2cc(C(=O)O)cc([N+](=O)[O-])c2)cc1 [Cpd 159] | 13.5 nM | 
CCNC(=O)c1ccc(C(=C2CC3CCC(C2)N3Cc2nccs2)c2cccc(CN)c2)cc1 [Cpd 160] | 7230 nM | 
CCNC(=O)c1ccc(C(=C2CC3CCC(C2)N3Cc2ccsc2)c2cc(C(=O)O)cc([N+](=O)[O-])c2)cc1 [Cpd 161] | 10000 nM | 
CCNC(=O)c1ccc(C(=C2CC3CCC(C2)N3Cc2ccsc2)c2cccc(CN)c2)cc1 [Cpd 162] | 849 nM | 
CCNC(=O)c1ccc(C(=C2CC3CCC(C2)N3CC=C(C)C)c2cccc(-c3nnn[nH]3)c2)cc1 [Cpd 163] | 49.3 nM | 
CCNC(=O)c1ccc(C(=C2CC3CCC(C2)N3Cc2ccco2)c2cccc(-c3nnn[nH]3)c2)cc1 [Cpd 164, N-ethyl-4{(8-furan-2-ylmethyl-8-aza-bicyclo[3.2.1]oct-3-ylidene)-[3-(1H-tetrazol-5-yl)-phenyl]-methyl}-benzamide] | 2.32 nM | 
CCNC(=O)c1ccc(C(=C2CC3CCC(C2)N3Cc2ccccn2)c2cccc(-c3nnn[nH]3)c2)cc1 [Cpd 165] | 54.1 nM | 
CCNC(=O)c1ccc(C(=C2CC3CCC(C2)N3CCc2ccccc2)c2cccc(-c3nnn[nH]3)c2)cc1 [Cpd 166] | 50.3 nM | 
CCNC(=O)c1ccc(C(=C2CC3CCC(C2)N3Cc2nccs2)c2cccc(-c3nnn[nH]3)c2)cc1 [Cpd 167] | 5.35 nM | 
CCNC(=O)c1ccc(C(=C2CC3CCC(C2)N3Cc2cccs2)c2cccc(-c3nnn[nH]3)c2)cc1 [Cpd 168] | 395 nM | 
CCNC(=O)c1ccc(C(=C2CC3CCC(C2)N3Cc2ccsc2)c2cccc(-c3nnn[nH]3)c2)cc1 [Cpd 169] | 14.2 nM | 
CCNC(=O)c1ccc(C(=C2CC3CCC(C2)N3C(=O)OCC)c2ccc(O)c(OC)c2)cc1 [Cpd 172, 3-[(4-Ethylcarbamoyl-phenyl)-(4-hydroxy-3-methoxy-phenyl)-methylene]-8-aza-bicyclo[3.2.1]octane-8-carboxylic acid ethyl ester] |  | 713 nM
CCNC(=O)c1ccc(C(=C2CC3CCC(C2)N3C(=O)OCC)c2cc(C)c(O)c(C)c2)cc1 [Cpd 173, 3-[(4-Ethylcarbamoyl-phenyl)-(4-hydroxy-3,5-dimethyl-phenyl)-methylene]-8-aza-bicyclo[3.2.1]octane-8-carboxylic acid ethyl ester] |  | 2070 nM
CCNC(=O)c1ccc(C(=C2CC3CCC(C2)N3Cc2nccs2)c2ccc(C(=O)O)cc2)cc1 [Cpd 174] | 304 nM | 
CCNC(=O)c1ccc(C(=C2CC3CCC(C2)N3Cc2ccsc2)c2cccc(C(=O)O)c2)cc1 [Cpd 175] | 34.4 nM | 
CCNC(=O)c1ccc(C(=C2CC3CCC(C2)N3Cc2ccsc2)c2ccc(C(=O)O)cc2)cc1 [Cpd 176] | 10.7 nM | 
CCNC(=O)c1ccc(C(=C2CC3CCC(C2)N3Cc2ccoc2)c2ccc(C(N)=O)cc2)cc1 [Cpd 177] | 1.34 nM | 
CCNC(=O)c1ccc(C(=C2CC3CCC(C2)N3Cc2ccoc2)c2cccc(CO)c2)cc1 [Cpd 178] | 0.81 nM | 
CCNC(=O)c1ccc(C(=C2CC3CCC(C2)N3Cc2ccco2)c2cccc(CO)c2)cc1 [Cpd 179] | 8.43 nM | 

Compound | Ki (MOR binding Ki) | Ki [1]
CCNC(=O)c1ccc(C(=C2CC3CCC(C2)N3Cc2ccco2)c2ccc(C(N)=O)cc2)cc1 [Cpd 180] | 10 nM | 
CCNC(=O)c1ccc(C(=C2CC3CCC(C2)N3Cc2ccccn2)c2cccc(CO)c2)cc1 [Cpd 181] | 6.04 nM | 
CCNC(=O)c1ccc(C(=C2CC3CCC(C2)N3Cc2ccccn2)c2ccc(NS(C)(=O)=O)cc2)cc1 [Cpd 182] | 2.71 nM | 
CCNC(=O)c1ccc(C(=C2CC3CCC(C2)N3Cc2ccccn2)c2ccc(C(N)=O)cc2)cc1 [Cpd 183] |  | 5050 nM
CCNC(=O)c1ccc(C(=C2CC3CCC(C2)N3CCc2ccccc2)c2ccc(NS(C)(=O)=O)cc2)cc1 [Cpd 185] | 58.9 nM | 
CCNC(=O)c1ccc(C(=C2CC3CCC(C2)N3Cc2nccs2)c2cccc(CO)c2)cc1 [Cpd 186] | 28.6 nM | 
CCNC(=O)c1ccc(C(=C2CC3CCC(C2)N3Cc2nccs2)c2ccc(NS(C)(=O)=O)cc2)cc1 [Cpd 187] | 121 nM | 
CCNC(=O)c1ccc(C(=C2CC3CCC(C2)N3Cc2nccs2)c2ccc(C(N)=O)cc2)cc1 [Cpd 188] |  | 491 nM
CCNC(=O)c1ccc(C(=C2CC3CCC(C2)N3Cc2ccsc2)c2cccc(CO)c2)cc1 [Cpd 189] | 13.7 nM | 
CCNC(=O)c1ccc(C(=C2CC3CCC(C2)N3Cc2ccsc2)c2ccc(NS(C)(=O)=O)cc2)cc1 [Cpd 190] | 0.717 nM | 
CCNC(=O)c1ccc(C(=C2CC3CCC(C2)N3Cc2ccsc2)c2ccc(C(N)=O)cc2)cc1 [Cpd 191] | 22.1 nM | 
CCNC(=O)c1ccc(C(=C2CC3CCC(C2)N3Cc2ccco2)c2ccc(CO)cc2)cc1 [Cpd 192] | 18.6 nM | 
CCNC(=O)c1ccc(C(=C2CC3CCC(C2)N3Cc2ccccn2)c2ccc(CO)cc2)cc1 [Cpd 193] | 25.3 nM | 
CCNC(=O)c1ccc(C(=C2CC3CCC(C2)N3CC=C(C)C)c2ccc(CO)cc2)cc1 [Cpd 194] |  | 3.67 nM
CCNC(=O)c1ccc(C(=C2CC3CCC(C2)N3Cc2nccs2)c2ccc(CO)cc2)cc1 [Cpd 195] | 64.2 nM | 
CCN(CC)C(=O)c1ccc(C(=C2CC3CCC(C2)N3C#N)c2ccccc2)cc1 [Cpd 197, 4-[(8-cyano-8-aza-bicyclo[3.2.1]oct-3-ylidene)-phenyl-methyl]-N,N-diethylbenzamide] | 10000 nM | 
CCN(CC)C(=O)c1ccc(C(=C2CC3CCC(C2)N3C(=N)N)c2ccccc2)cc1 [Cpd 198, 4-[(8-Carbamimidoyl-8-aza-bicyclo[3.2.1]oct-3-ylidene)-phenyl-methyl]-N,N-diethyl-benzamide] | 10000 nM | 
CCN(CC)C(=O)c1ccc(C(=C2CC3CCC(C2)N3C=O)c2ccccc2)cc1 [Cpd 199] | 5340 nM | 
CCNC(=O)c1ccc(C(=C2CC3CCC(C2)N3C(=O)Cc2ccccc2)c2cccnc2)cc1 [Cpd 200, N-Ethyl-4-[(8-phenylacetyl-8-aza-bicyclo[3.2.1]oct-3-ylidene)-pyridin-3-yl-methyl]-benzamide] | 13.3 nM | 
CCNC(=O)c1ccc(C(=C2CC3CCC(C2)N3Cc2ccco2)c2nnn[nH]2)cc1 [Cpd 204] |  | 25300 nM
CCNC(=O)c1ccc(C(=C2CC3CCC(C2)N3Cc2ccsc2)c2ccc(CO)cc2)cc1 [Cpd 205] | 17.2 nM | 
